Tests used:
[1] = tested on: B. subtilis; assay type: cell-based, Bacillus subtilis (ATCC 9372); details: ppm of silver, organism not given
Method: (§1) Antibacterial properties of C—S CuSiNP and AgSiNG materials were evaluated against a gram positive Bacillus subtilis (B. subtilis, ATCC 9372) and a gram negative Escherichia coli (E. coli, ATCC 35218) organism. For all antibacterial assays, bacterial concentration of 10^5 cells/mL was considered. Copper sulfate with same metallic copper concentration was used as positive controls and silica nanoparticle (without Cu loading) was used as negative control.
(§2) Two sets of different concentrations of C—S CuSiNP were made in LB broth (0.49, 1.2, 2.4, 4.9, 7.2 and 9.8 ppm copper concentration) to a final volume of 10 mL. 250 μL (10^5 cells/mL) of E. coli and B. subtilis were added to set 1 and 2 respectively. Silica nanoparticle was used as negative control and copper sulfate with equivalent amount of copper was used as positive control. […]
(§3) The growth inhibitory effects of C—S CuSiNP and AgSiNG against E. coli and B. subtilis were studied in liquid media (FIG. 2.3 and FIG. 2.4). Bacterial growth with different concentrations of C—S CuSiNP and AgSiNG (0.49 to 9.8 μg mL^−1) was monitored after 24 hours of incubation at 37° C. by measuring the optical density at 600 nm using Teysche800 spectrophotometer. Since the turbidity of silica based material can interfere with the optical density reading, the background measurement was subtracted to calculate the final reading.

[2] = tested on: E. coli; assay type: cell-based, Escherichia coli (ATCC 35218); details: ppm of silver, organism not given
Method: as §1, §2, §3

O=[N+]([O-])[O-].[Ag+] [silver nitrate]
silver concentration at which growth inhibition can be seen [1]: 2.4 ppm | silver concentration at which growth inhibition can be seen [2]: 2.4 ppm

From US20130108702A1, “COPPER/SILICA NANOPARTICLES, METHODS OF MAKING, AND METHODS OF USE” (priority 2011, published 2013)
